# Values joined by “and” are separate entries in the source; they are usually repeats but may differ in a detail not shown here. Equal entries are not always repeated.
# What was measured:
# LNCaP xenografts = experiment: Biodistribution in LNCaP xenografts; assay type: in vivo, mice
# Method: All animal experiments were conducted in accordance with Swiss animal welfare laws and regulations under license number 30515 granted by the Veterinary Office, Department of Health, Canton Basel-Stadt, Switzerland. Male athymic nude-Foxn1^nu/Foxn1^+ mice (Envigo), 4–6 wk old, were inoculated subcutaneously on the shoulder with 10^7 LNCaP cells, freshly suspended in a 1:1 ratio of sterile minimum essential medium with basal medium Eagle and Matrigel. The tumors were allowed to grow to a volume of approximately 200 mm^3.
# The biodistribution of [^61Cu]Cu-DOTAGA-PSMA-I&T and [^61Cu]Cu-NODAGA-PSMA-I&T (100 µL/200 pmol/2–3 MBq) was compared with that of [^68Ga]Ga-DOTAGA-PSMA-I&T, [^68Ga]Ga-NODAGA-PSMA-I&T, and [^68Ga]Ga-PSMA-11 (100 µL/200 pmol/3–5 MBq), as well as [^18F]PSMA-1007 (100 µL/70 pmol/15 MBq). This comparison was conducted at 1 h after injection for all radiotracers and at 4 h after injection for the ^61Cu-labeled tracers and [^18F]PSMA-1007. The specificity of the ^61Cu-labeled tracers was assessed at 1 h after injection by blocking studies with 2-(phosphonomethyl)pentanedioic acid (100 µL/1.3 µmol) being injected 3–5 min before the injection of the radiotracer.
# [1] = Human dosimetry estimates (OLINDA/EXM version 1.0) from mouse biodistribution; details: standard adult man phantom; mouse kinetics assumed same as human
# Method: Additional biodistribution data were generated in healthy BALB/c mice using [^64Cu]Cu-NODAGA-PSMA-I&T at 1, 4, 12, and 24 h after injection and combined with the data of [^61Cu]Cu-NODAGA-PSMA-I&T at 1 and 4 h after injection. Non–decay-corrected biodistribution data for ^61Cu (t1/2, 3.33 h) were used to generate time–activity curves for [^61Cu]Cu-NODAGA-PSMA-I&T. OLINDA/EXM version 1.0 (Vanderbilt University) was used for the dosimetry estimates, as described in the supplemental materials.
# [2] = Stability of radiotracer at room temperature (radiochemical purity over time); assay type: physicochemical; details: good manufacturing practice grade for human use, 20 MBq/nmol
# Method: [^61Cu]Cu-DOTAGA-PSMA-I&T and [^61Cu]Cu-NODAGA-PSMA-I&T were synthesized with radiolabeling yield of more than 98% and radiochemical purity of more than 97% (radio–high-performance liquid chromatography analysis) at an apparent molar activity of 24 MBq/nmol. Thus, no purification was required after labeling. Although [^61Cu]Cu-DOTAGA-PSMA-I&T needed elevated temperature (95°C) and 15 min of reaction time, [^61Cu]Cu-NODAGA-PSMA-I&T was synthesized at room temperature within 5 min. After 4 h at room temperature, the radiochemical purity of [^61Cu]Cu-DOTAGA-PSMA-I&T dropped to approximately 90%, whereas it remained stable (∼97%) for [^61Cu]Cu-NODAGA-PSMA-I&T. All analytic data and quality control results are provided in Supplemental Figures 1 and 2 and in Supplemental Tables 1 and 2.
# With inexpensive ^natNi as the starting material, highly pure ^61Cu could be produced with radionuclidic purity exceeding 99.99% at 12 h after synthesis (details on the production will be published elsewhere). The preparation of [^61Cu]Cu-NODAGA-PSMA-I&T was performed in widely used buffers at room temperature within 5 min. […] High labeling yields and suitable molar activities for clinical use eliminate the need for any purification step after labeling. […]
# [3] = 1 h after injection, blocking with 2-(phosphonomethyl)pentanedioic acid 1.3 µmol
smiles,measurement,setting,value
"O=C([O-])CN1CCN(CC(=O)[O-])CCN(C(CCC(=O)N[C@H](Cc2ccc(O)c(I)c2)C(=O)N[C@H](Cc2ccccc2)C(=O)N[C@H](CCCCNC(=O)CCCCCCC(=O)NCCCC[C@H](NC(=O)N[C@@H](CCC(=O)O)C(=O)O)C(=O)O)C(=O)O)C(=O)O)CC1.[61Cu+2] (stereo partly drawn) [[^61Cu]Cu-NODAGA-PSMA-I&T, NODAGA-(l-y)fk(sub-KuE)]","Biodistribution, Adrenals",LNCaP xenografts; 1 h after injection,17.3 ± 3.26 %IA/g
same,"Biodistribution, Blood",LNCaP xenografts; 1 h after injection,0.28 ± 0.06 %IA/g
same,"Biodistribution, Femur",LNCaP xenografts; 1 h after injection,2.73 ± 0.91 %IA/g
same,"Biodistribution, Heart",LNCaP xenografts; 1 h after injection,0.45 ± 0.15 %IA/g
same,"Biodistribution, Intestine",LNCaP xenografts; 1 h after injection,2.11 ± 0.78 %IA/g
same,"Biodistribution, Kidneys",LNCaP xenografts; 1 h after injection,118 ± 13 %IA/g
same,"Biodistribution, Liver",LNCaP xenografts; 1 h after injection,1.02 ± 0.28 %IA/g
same,"Biodistribution, Lung",LNCaP xenografts; 1 h after injection,1.69 ± 0.45 %IA/g
same,"Biodistribution, Muscles",LNCaP xenografts; 1 h after injection,1.12 ± 0.32 %IA/g
same,"Biodistribution, Pancreas",LNCaP xenografts; 1 h after injection,0.97 ± 0.36 %IA/g
same,"Biodistribution, Salivary glands",LNCaP xenografts; 1 h after injection,2.01 ± 0.33 %IA/g
same,"Biodistribution, Spleen",LNCaP xenografts; 1 h after injection,6.04 ± 1.87 %IA/g
same,"Biodistribution, Stomach",LNCaP xenografts; 1 h after injection,1.13 ± 0.20 %IA/g
same,"Biodistribution, Tumor (tumor uptake)",LNCaP xenografts; 1 h after injection,14.0 ± 5.0 %IA/g
same,Tumor-to-Adrenals ratio,LNCaP xenografts; 1 h after injection,0.92 ± 0.20
same,Tumor-to-Blood ratio,LNCaP xenografts; 1 h after injection,55.8 ± 20.0
same,Tumor-to-Intestine ratio,LNCaP xenografts; 1 h after injection,7.87 ± 2.93
same,Tumor-to-Kidneys ratio,LNCaP xenografts; 1 h after injection,0.13 ± 0.03
same,Tumor-to-Liver ratio,LNCaP xenografts; 1 h after injection,14.9 ± 4.9
same,Tumor-to-Muscles ratio,LNCaP xenografts; 1 h after injection,13.6 ± 3.75
same,Tumor-to-Salivary glands ratio,LNCaP xenografts; 1 h after injection,7.83 ± 3.16
same,Tumor-to-Spleen ratio,LNCaP xenografts; 1 h after injection,2.86 ± 1.37
same,"Biodistribution, Adrenals",LNCaP xenografts; [3],0.95 ± 0.16 %IA/g
same,"Biodistribution, Blood",LNCaP xenografts; [3],0.19 ± 0.01 %IA/g
same,"Biodistribution, Femur",LNCaP xenografts; [3],0.39 ± 0.24 %IA/g
same,"Biodistribution, Heart",LNCaP xenografts; [3],0.33 ± 0.03 %IA/g
same,"Biodistribution, Intestine",LNCaP xenografts; [3],0.87 ± 0.10 %IA/g
same,"Biodistribution, Kidneys",LNCaP xenografts; [3],4.59 ± 0.35 %IA/g
same,"Biodistribution, Liver",LNCaP xenografts; [3],1.29 ± 0.21 %IA/g
same,"Biodistribution, Lung",LNCaP xenografts; [3],0.67 ± 0.06 %IA/g
same,"Biodistribution, Muscles",LNCaP xenografts; [3],0.32 ± 0.06 %IA/g
same,"Biodistribution, Pancreas",LNCaP xenografts; [3],0.28 ± 0.17 %IA/g
same,"Biodistribution, Salivary glands",LNCaP xenografts; [3],0.51 ± 0.20 %IA/g
same,"Biodistribution, Spleen",LNCaP xenografts; [3],0.33 ± 0.08 %IA/g
same,"Biodistribution, Stomach",LNCaP xenografts; [3],0.62 ± 0.04 %IA/g
same,"Biodistribution, Tumor",LNCaP xenografts; [3],0.68 ± 0.55 %IA/g
same,"Biodistribution, Adrenals",LNCaP xenografts; 4 h after injection,8.32 ± 2.87 %IA/g
same,"Biodistribution, Blood",LNCaP xenografts; 4 h after injection,0.10 ± 0.03 %IA/g
same,"Biodistribution, Femur",LNCaP xenografts; 4 h after injection,1.34 ± 0.48 %IA/g
same,"Biodistribution, Heart",LNCaP xenografts; 4 h after injection,0.22 ± 0.05 %IA/g
same,"Biodistribution, Intestine",LNCaP xenografts; 4 h after injection,1.06 ± 0.50 %IA/g
same,"Biodistribution, Kidneys",LNCaP xenografts; 4 h after injection,90.9 ± 10.1 %IA/g
same,"Biodistribution, Liver",LNCaP xenografts; 4 h after injection,0.72 ± 0.11 %IA/g
same,"Biodistribution, Lung",LNCaP xenografts; 4 h after injection,0.74 ± 0.19 %IA/g
same,"Biodistribution, Muscles",LNCaP xenografts; 4 h after injection,0.50 ± 0.22 %IA/g
same,"Biodistribution, Pancreas",LNCaP xenografts; 4 h after injection,0.45 ± 0.09 %IA/g
same,"Biodistribution, Salivary glands",LNCaP xenografts; 4 h after injection,0.52 ± 0.06 %IA/g
same,"Biodistribution, Spleen",LNCaP xenografts; 4 h after injection,1.28 ± 0.39 %IA/g
same,"Biodistribution, Stomach",LNCaP xenografts; 4 h after injection,0.66 ± 0.15 %IA/g
same,"Biodistribution, Tumor (tumor uptake)",LNCaP xenografts; 4 h after injection,10.7 ± 3.3 %IA/g
same,Tumor-to-Adrenals ratio,LNCaP xenografts; 4 h after injection,1.44 ± 0.65
same,Tumor-to-Blood ratio,LNCaP xenografts; 4 h after injection,109 ± 43
same,Tumor-to-Intestine ratio,LNCaP xenografts; 4 h after injection,12.5 ± 6.7
same,Tumor-to-Kidneys ratio,LNCaP xenografts; 4 h after injection,0.12 ± 0.03
same,Tumor-to-Liver ratio,LNCaP xenografts; 4 h after injection,15.4 ± 5.7
same,Tumor-to-Muscles ratio,LNCaP xenografts; 4 h after injection,25.4 ± 12.0
same,Tumor-to-Salivary glands ratio,LNCaP xenografts; 4 h after injection,19.5 ± 7.1
same,Tumor-to-Spleen ratio,LNCaP xenografts; 4 h after injection,9.16 ± 3.84
same,Effective dose,[1],0.0142 mSv/MBq and 1.42E−02 mSv/MBq
same,"Total absorbed dose, men: Adrenals",[1],8.39E−02 mGy/MBq
same,"Total absorbed dose, men: Brain",[1],6.18E−05 mGy/MBq
same,"Total absorbed dose, men: Gallbladder wall",[1],2.30E−02 mGy/MBq
same,"Total absorbed dose, men: Heart wall",[1],6.94E−03 mGy/MBq
same,"Total absorbed dose, men: Kidneys",[1],1.74E+00 mGy/MBq
same,"Total absorbed dose, men: LLI wall",[1],4.64E−03 mGy/MBq
same,"Total absorbed dose, men: Liver",[1],2.51E−02 mGy/MBq
same,"Total absorbed dose, men: Lungs",[1],6.11E−03 mGy/MBq
same,"Total absorbed dose, men: Muscle",[1],6.00E−03 mGy/MBq
same,"Total absorbed dose, men: Osteogenic cells",[1],5.31E−03 mGy/MBq
same,"Total absorbed dose, men: Pancreas",[1],4.83E−02 mGy/MBq
same,"Total absorbed dose, men: Red marrow",[1],1.11E−02 mGy/MBq
same,"Total absorbed dose, men: Skin",[1],2.90E−03 mGy/MBq
same,"Total absorbed dose, men: Small intestine",[1],3.79E−02 mGy/MBq
same,"Total absorbed dose, men: Spleen",[1],7.37E−02 mGy/MBq
same,"Total absorbed dose, men: Stomach wall",[1],1.71E−02 mGy/MBq
same,"Total absorbed dose, men: Testes",[1],5.39E−04 mGy/MBq
same,"Total absorbed dose, men: Thymus",[1],1.67E−03 mGy/MBq
same,"Total absorbed dose, men: Thyroid",[1],4.99E−04 mGy/MBq
same,"Total absorbed dose, men: Total body",[1],1.38E−02 mGy/MBq
same,"Total absorbed dose, men: ULI wall",[1],1.43E−02 mGy/MBq
same,"Total absorbed dose, men: Urinary bladder wall",[1],2.06E−03 mGy/MBq
same,Time stable at room temperature,[2],up to 9 h
